Experimental data reported in US20260234651A1, “ACETYL-COA CARBOXYLASE INHIBITOR RESISTANT SORGHUM” (PIONEER HI-BRED INTERNATIONAL, INC., priority 2023, published 2026).

Legend:
Assay type in all cases: in vivo, Sorghum bicolor
[1] = system: control plants without the W2032C ACCase edit; test: Field tolerance test, summary in words; conditions: all plants dead at 10-14 days post spray
Procedure: (§1) The ACCase edited plants generated in Example 1 were outcrossed with 3 male sterile lines in a controlled environment. The F1 plants which contain a single copy of the W2032C edit in the ACCase gene and the edited elite inbred line containing 2 copies of the W2032C ACCase (hereinafter referred to as […]) along with the non-edited elite inbred (wt control) and the 3 male sterile lines were tested in the field for efficacy. Four short rows, each row with ~100 seedlings, were planted for each variety in replicate. Once the plants reached the 5-6 leaves stage, replicate 1 for each variety was treated with a 1× dose of Assure II (Quizalofop-P-ethyl) and replicate 2 for each variety was treated with a 2× dose of Assure II (Quizalofop-P-ethyl). Plants were then scored for tolerance at 7- and 14-days post application. The plots were scored by giving a 1-9 score to each plot, with 1 being dead and 9 no visible response.

[2] = system: three F1 hybrids with a single copy of the W2032C ACCase edit; test: Field tolerance test, summary in words; conditions: 1x or 2x Assure II
Procedure: as §1

[3] = system: homozygous ACCase edited T1 plants; test: Spray test of T1 plants with quizalofop-p-ethyl; conditions: all 19 homozygous ACCase edited T1 plants, 8-leaf stage, 7 fl. ounce (0.034-0.083 lb ai)
Source text: (§2) ACCase edited T1 seeds were planted in flats, all seeds germinated and were heathy looking. Additionally, they were all able to produce T2 seeds with high seed count setting. Nineteen homozygous ACCase edited T1 plants at the 8-leaf stage were sprayed with quizalofop-p-ethyl at a rate of 7 fl. ounce (0.034-0.083 lb ai), which is the average dose from the Assure II label. […] A subset of the T1 plants after the spray test were kept to maturity and all produced T2 seeds with good seed setting. In contrast, the wild-type control plants were all susceptible to the quizalofop-p-ethyl spray and died.

[4] = system: wild-type control plants; test: Spray test of T1 plants with quizalofop-p-ethyl; conditions: 7 fl. ounce (0.034-0.083 lb ai), all died
Source text: as §2

[5] = system: Male Sterile 1_WT; test: Field tolerance test, Quizalofop-P-ethyl (Assure II) spray; conditions: 0 copies, 1-9 score, 1 dead, 9 no visible response
Procedure: as §1
(§3) The PH2545MW_W2032C was given score of 7 with 1× dose of Quizalofop-P-ethyl application (Table 4), as some twisting of the leaves due to herbicide injury was observed, however, after a week or so the twisting of the leaves may not be visible anymore because they were growing out of it, which may be indicated by the score change from 5 to 6 at day 7 and day 14 post 2× dose of Quizalofop-P-ethyl application.

[6] = system: F1 Hybrid 2_W2032C (single copy of W2032C ACCase); test: as above; conditions: 1 copy, 1-9 score, 1 dead, 9 no visible response
Procedure: as §1, §3

[7] = system: Male Sterile 3_WT; test: as above; conditions: 0 copies, 1-9 score, 1 dead, 9 no visible response
Procedure: as §1, §3

[8] = system: elite inbred_WT (non-edited elite inbred, wt control); test: as above; conditions: 0 copies W2032C, 1-9 score, 1 dead, 9 no visible response
Procedure: as §1, §3

[9] = system: Male Sterile 2_WT; test: as above; conditions: 0 copies, 1-9 score, 1 dead, 9 no visible response
Procedure: as §1, §3

[10] = system: F1 Hybrid 3_W2032C (single copy of W2032C ACCase); test: as above; conditions: 1 copy, 1-9 score, 1 dead, 9 no visible response
Procedure: as §1, §3

[11] = system: F1 Hybrid 1_W2032C (single copy of W2032C ACCase); test: as above; conditions: 1 copy, 1-9 score, 1 dead, 9 no visible response
Procedure: as §1, §3

[12] = system: elite inbred_W2032C (2 copies of W2032C ACCase); test: as above; conditions: for 7-day Post Application Score / 14-day Post Application Score: elite inbred_W2032C, 2 copies
Procedure: as §1, §3

[13] = 1x dose, 1-9 score, 1 dead, 9 no visible response
[14] = 2x dose, 1-9 score, 1 dead, 9 no visible response

Question: Which results are given for `CCOC(=O)[C@@H](C)Oc1ccc(Oc2cnc3cc(Cl)ccc3n2)cc1` [Quizalofop-P-ethyl]?
Answer: tolerance to the herbicide in the field [1]: no tolerance; tolerance to the herbicide in the field [2]: some tolerance; response of plants to the herbicide spray [3]: resistance (tolerance); response of plants to the herbicide spray [4]: susceptible; 7-day Post Application Score ([5]; 1x dose): 2; 14-day Post Application Score ([5]; 1x dose): 1; 7-day Post Application Score ([5]; 2x dose): 2; 14-day Post Application Score ([5]; 2x dose): 1; 7-day Post Application Score ([6]; 1x dose): 5; 14-day Post Application Score ([6]; 1x dose): 4; 7-day Post Application Score ([6]; 2x dose): 5; 14-day Post Application Score ([6]; 2x dose): 3; 7-day Post Application Score ([7]; 1x dose): 3; 14-day Post Application Score ([7]; 1x dose): 1; 7-day Post Application Score ([7]; 2x dose): 2; 14-day Post Application Score ([7]; 2x dose): 1; 7-day Post Application Score ([8]; 1x dose): 3; 14-day Post Application Score ([8]; 1x dose): 1; 7-day Post Application Score ([8]; 2x dose): 3; 14-day Post Application Score ([8]; 2x dose): 1; 7-day Post Application Score ([9]; 1x dose): 2; 14-day Post Application Score ([9]; 1x dose): 1; 7-day Post Application Score ([9]; 2x dose): 2; 14-day Post Application Score ([9]; 2x dose): 1; 7-day Post Application Score ([10]; 1x dose): 5; 14-day Post Application Score ([10]; 1x dose): 3; 7-day Post Application Score ([10]; 2x dose): 5; 14-day Post Application Score ([10]; 2x dose): 4; 7-day Post Application Score ([11]; 1x dose): 5; 14-day Post Application Score ([11]; 1x dose): 4; 7-day Post Application Score ([11]; 2x dose): 4; 14-day Post Application Score ([11]; 2x dose): 3; field tolerance score (day not stated) ([12]; PH2545MW_W2032C, 1x dose, some twisting of the leaves, 1-9 score, 1 dead, 9 no visible response): 7; 7-day Post Application Score [12, 13]: 7; 14-day Post Application Score [12, 13]: 7; 7-day Post Application Score [12, 14]: 5; 14-day Post Application Score [12, 14]: 6; tolerance to the herbicide in the field ([12]; inbred_W2032C plants, 1x or 2x Assure II at 5-6 leaves stage): tolerance
